A melting point compilation (Tetko et al.)

SMILES | melting point [°C]
O=C(NC1CCCCC1)c1cccnc1Cl | 132 to 134
Cc1cc(F)c(C(=O)CCl)cc1F | 93 to 95
COc1ccc([N+](=O)[O-])cc1NC(=O)CCCl | 159 to 161
CN(C)S(=O)(=O)c1ccc(C(=O)O)o1 | 177 to 179
NCc1ccc(NC(=O)c2ccc(F)cc2)cc1 | 135 to 137
COC(=O)c1c(O)cc(=O)n2c1CCC2 | 167 to 169
ON=Cc1ccc(OCc2ccccc2)cc1 | 109 to 111
O=C(Nc1ccc(S(=O)(=O)Cl)cc1)c1ccc(F)cc1 | 149 to 151
Cc1ccc(S(=O)(=O)N2CCCCC2)cc1S(=O)(=O)Cl | 154 to 156
COC(=O)c1n[nH]c(=O)c2noc(C3CC3)c12 | 234 to 236
O=C(Nc1nnc(C2CC2)s1)OCC(F)(F)F | 197 to 199
Nc1ccc(C(=O)NCc2ccccc2)cc1 | 113 to 115
O=S(=O)(Cl)c1cn2c(n1)CCCC2 | 74 to 76
Nc1ccc(F)c(NC(=O)C2CC2)c1 | 121 to 123
O=[N+]([O-])c1ccc(-c2nnc(CCl)o2)cc1 | 128 to 130
Cc1cc(N)ccc1Oc1cccnc1 | 90 to 92
Cc1ccc(NS(=O)(=O)c2ccc(Cl)c(C(=O)O)c2)cc1C | 207 to 209
CC1(C#N)CCN(C(=O)C(F)(F)F)CC1 | 41 to 43
CCCc1nc(C(=O)O)nn1-c1ccccc1Cl | 142 to 144
CC(C)(C)OC(=O)NC(CC(=O)O)C1CC1 (stereo unspecified) | 111 to 113
O=C(O)c1nn(-c2cccc(F)c2)ccc1=O | 219 to 221
N#Cc1cnccc1N | 170 to 172
CC(Cl)C(=O)Nc1ccc(I)cc1 (stereo unspecified) | 159 to 161
CCc1ccccc1N(C(C)=O)c1nc(CN=C=S)cs1 | 96 to 98

SMILES | melting point [°C]
Fc1cc(CBr)c2ncccc2c1 | 96 to 98
CC(O)C(NC(=O)C(C)(C)C)C(=O)O (stereo unspecified) | 156 to 158
O=C(/C=C/c1ccc2c(c1)CCO2)N1CCCC(CO)C1 (stereo unspecified) | 131 to 133
C=CC(=O)Nc1ccc(Br)cc1 | 197 to 199
COCc1cc([N+](=O)[O-])ccc1Cl | 43 to 45
O=C(O)c1cc(Br)c(S(=O)(=O)Cl)s1 | 129 to 131
Nc1ccn(-c2cccc(C(F)(F)F)c2)n1 | 80 to 82
COc1ccsc1C(=O)O | 179 to 181
O=C(O)c1ccnc2ncnn12 | 259 to 261
Cn1ncnc1-c1ccc(C(=O)O)cc1 | 240 to 242
CC(C)(C)c1cn2nc(Br)sc2n1 | 105 to 107
CC1(c2cc3ccccc3o2)NC(=O)NC1=O (stereo unspecified) | 203 to 205
NS(=O)(=O)CC1CC1 | 45 to 47
O=C(O)c1ccc(-c2cccs2)[nH]c1=O | 289 to 291
Cc1cccc(C(=O)NC(CCS(C)(=O)=O)C(=O)O)c1 (stereo unspecified) | 235 to 239
C=CCNc1ccc(C(F)(F)F)cc1C#N | 54 to 56
CCc1nc(C(=O)O)co1 | 101 to 103
COc1cc(C)c(C=O)cc1OC | 70 to 72
COc1ccc2[nH]c(NCc3ccccc3)nc2c1 | 179 to 181
O=C(c1cccc([N+](=O)[O-])c1)N1CCNCC1 | 145 to 147
CCCn1c(S)nnc1CO | 119 to 121
O=C(O)c1nn(-c2ccccc2F)c2c1CCC2 | 194 to 196
Nc1cccc(-c2nnc[nH]2)c1 | 182 to 184
COc1ccc(C(=O)Nc2sc3c(c2C(=O)O)CCCC3)cc1 | 216 to 220

SMILES | melting point [°C]
CC(C)(C)OC(=O)N1CCN(C(N)=S)CC1 | 168 to 170
CCc1cccc2c(C(=O)CCl)c[nH]c12 | 165 to 167
N#Cc1ccnc(OC2CCC2)c1 | 39 to 41
O=C(O)c1ccc2nnnn2c1 | 216 to 218
NCc1ccccc1CN1C(=O)NC2(CCCCC2)C1=O | 141 to 143
O=C(O)c1cc(S(=O)(=O)NCCN2CCCC2)ccc1Cl | 279 to 281
CCOc1cc(C=CC(=O)O)ccc1OCC(C)C | 72 to 74
O=C(NC1(C(=O)O)CCCCC1)c1ccc(Br)cc1 | 238 to 240
CC(C)CCc1ccc(S(=O)(=O)Cl)cc1 | 35 to 39
O=C(O)CSCC(=O)c1ccccc1 | 95 to 97
CC(C)(C)OC(=O)NC(C)(C)C(C)(C)C(=O)O | 125 to 127
Nc1cc(-c2cccs2)no1 | 91 to 93
O=C(O)c1cc(NS(=O)(=O)c2cccs2)ccc1O | 209 to 211
O=[N+]([O-])c1ccc(-c2nnc(O)o2)cc1 | 249 to 251
Cc1nn(C(C)C)c(C)c1NC(=O)OCC(F)(F)F | 185 to 187
CCCCOc1ccc(C(=O)NC(C(=O)O)C(C)O)cc1 (stereo unspecified) | 130 to 132
Nc1ncc(Cc2cccc(F)c2)s1 | 82 to 84
N#Cc1cccn2ccnc12 | 169 to 171
CC(=O)N1CCC(O)C1 (stereo unspecified) | 77 to 79
Cc1sc(C(=O)O)cc1CS(C)(=O)=O | 233 to 235
Cc1cn(C2CC(O)C(CO)O2)c(=O)[nH]c1=O (stereo unspecified) | 187 to 189
Cc1ccc(S(=O)(=O)C2(C(=O)O)CCCC2)cc1 | 131 to 133
COC(=O)c1ccc(O)nc1C | 222 to 224
CS(=O)(=O)c1cccc(C(=O)c2ccc(Cl)cc2)c1 | 107 to 109

SMILES | melting point [°C]
CN1CCN(S(=O)(=O)c2cccnc2NN)CC1 | 109 to 111
Cn1ccc(N2CCCC(N)C2=O)n1 (stereo unspecified) | 79 to 81
O=C(O)CSC(O)C(=O)c1ccccc1 (stereo unspecified) | 113 to 115
Nc1cc(C(=O)O)c(Br)cn1 | 276 to 278
N#Cc1ccccc1Oc1ccc(CCl)cc1 | 54 to 56
Cc1nn(C)c2c1NC(=O)CO2 | 219 to 221
COc1ccc(-c2cc(N)n(-c3cccc(C)c3)n2)cc1 | 125 to 127
O=C(O)CSC1=NS(=O)(=O)c2ccccc21 | 213 to 215
CC1CCN(c2ccc([N+](=O)[O-])cc2C(=O)O)CC1 | 160 to 162
CC(=O)Nc1cccc(CN)c1 | 82 to 84
COC(=O)c1cc2nc(Cl)ccc2n1C | 134 to 136
CN(CCCC(=O)O)C1=NS(=O)(=O)c2ccccc21 | 159 to 161
O=C(O)C(c1ccccc1)C1CC1 (stereo unspecified) | 84 to 86
Cc1ccc(-n2c(C)c(C)c3c(N)ncnc32)cc1 | 202 to 206
CCC(C)c1ccc(C(=O)O)cc1 (stereo unspecified) | 88 to 90
Cc1cc(C=O)cc(C)c1OC(F)F | 56 to 58
CC(C)(C)C1CCc2sc(-c3nnc(CCl)o3)cc2C1 (stereo unspecified) | 89 to 91
O=S(=O)(Cl)c1cnn(-c2ccccc2F)c1 | 81 to 83
COC(=O)NS(=O)(=O)Cl | 69 to 71
O=C(CCl)N(Cc1ccc(F)cc1)C1CCCCC1 | 73 to 75
Cc1n[nH]c(C)c1CO | 178 to 180
CCc1nc(C(=O)O)nn1-c1ccccc1 | 145 to 147
Cc1ccc2cccc(S(=O)(=O)Cl)c2n1 | 113 to 115
COc1cccc2c1CCCC(=O)N2 | 159 to 161

SMILES | melting point [°C]
O=C(O)c1c(O)cc(F)cc1F | 182 to 184
O=C1Nc2c(Br)ccc(Br)c2C1=O | 271 to 273
CC(C)n1[nH]ccc1=NC(=O)OCC(F)(F)F | 77 to 79
CCN(CC)S(=O)(=O)c1c[nH]c(C(=O)O)c1 | 250 to 252
CN(N)C(N)=O | 108 to 110
O=C(O)C1CCCN1C(=O)c1ccccc1OC(F)F (stereo unspecified) | 124 to 126
Nc1nnc(-c2ccc(F)cc2)[nH]1 | 223 to 227
O=C(Nc1nc(-c2ccc(Cl)c(Cl)c2)cs1)C(Cl)c1ccccc1 (stereo unspecified) | 128 to 130
O=Cc1ccc(-c2cccnc2)o1 | 104 to 106
CC(C)(C)Oc1ccc(C(N)=S)cc1 | 179 to 181
O=C(Nc1ccc(Br)cn1)C1CCNCC1 | 144 to 146
O=C(O)C1CC1c1cccc2ccccc12 (stereo unspecified) | 116 to 118
Cc1ccc(C#N)cc1N | 76 to 78
O=C(O)c1ccc(-n2cccc2)nc1 | 259 to 261
Nc1ccc(S(=O)(=O)C(F)F)cc1 | 102 to 104
N#CCc1cccc2cccnc12 | 84 to 86
Cc1n[nH]c(C)c1-c1ccccc1N | 162 to 164
O=Cc1ccc(-c2ccc(Cl)c(C(F)(F)F)c2)o1 | 74 to 76
[N-]=[N+]=Nc1ccc(Cl)cc1Cl | 52 to 54
O=C(O)c1cc(Cl)ccc1Sc1ccc(Cl)cc1 | 158 to 160
Nc1nc(CCl)nc2ccccc12 | 163 to 165
CN(C)c1ccc(S(N)(=O)=O)cc1N | 150 to 154
O=C(O)C1(Cc2nc3ccccc3s2)CCCCC1 | 170 to 172
O=C(Cc1ccc(Cl)cc1)c1ccccn1 | 49 to 51

SMILES | melting point [°C]
O=C(O)C1CCN(S(=O)(=O)c2ccc(F)c(Cl)c2)CC1 | 190 to 192
CCN(CC)C(=O)c1ccc(N)cc1Cl | 154 to 156
CS(=O)(=O)NCc1cccc(Br)c1 | 66 to 68
NC(=O)CC(F)(F)F | 101 to 103
CCN(CC)c1ccc(S(N)(=O)=O)cc1NC(=O)CCl | 135 to 137
CS(=O)(=O)c1ccccc1F | 49 to 53
Cc1ccnn1-c1ccc(C(=O)O)cc1 | 243 to 245
O=C(O)CSCc1cccnc1 | 109 to 111
Cc1ccc(-c2nn(Cc3ccccc3)cc2/C=C/C(=O)O)cc1 | 107 to 109
Cc1ccc(CC(=O)Cc2ccc(C)cc2)cc1 | 53 to 55
CC(NC(=O)CNC(=O)CCl)c1ccc(F)cc1 (stereo unspecified) | 137 to 139
Cc1cc(N)n(-c2ccc(OC(F)(F)F)cc2)n1 | 118 to 120
C/C(=N\NC(N)=S)c1ccccc1 | 114 to 116
Cn1nc(-c2ccncc2)cc1O | 209 to 211
CS(=O)(=O)Nc1ccc(N)cc1Br | 146 to 148
N#CCC(=O)c1cccc([N+](=O)[O-])c1 | 149 to 151
CC(C)(C)NS(=O)(=O)c1ccc(Cl)c(C(=O)O)c1 | 179 to 181
CNC(=O)c1cccc(CCC(=O)O)c1 | 119 to 121
Sc1nnc(-c2ccccc2)s1 | 199 to 201
Cc1ccc(C(N)=O)cc1O | 181 to 183
CCc1cccc2c(C3=CCNCC3)c[nH]c12 | 190 to 192
